Laboratory results reported in patent US12421208B2, “Chemical compounds” (ASTRAZENECA AB, priority 2020, dated 2025).
pIC50: −log10 of the molar value.

Key:
MDR1 and BCRP = assay: In vitro human transporter efflux (MDCK-MDR1-BCRP); assay type: in vitro ADME; settings: human, pH 7.4, Papp(B to A)/Papp(A to B), 1 or 0.1 μM, 90-min incubation
Description: In Vitro Human Transporter Efflux
MDCKII cells expressing MDR1 and BCRP were seeded onto polyethylene membranes in 96-well Transwell insert systems at a density to form a confluent cell monolayer. […] The final percent volume of the organic solvent was less than 1%. Permeation of the test compounds from A to B direction and from B to A direction was determined over a 90-min incubation at 37° C. and 5% CO2 with a relative humidity of 95%. At the end of the incubation, samples from the apical and basolateral side were taken and then precipitated with cold acetonitrile containing internal standard. After centrifugation at 4000 rpm, the supernatant was diluted with 0.1% formic acid aqueous solution and quantified by LC-MS/MS. The integrity of the cell monolayers was confirmed by using the marker Lucifer yellow.
(1) The efflux ratio was calculated using the following equation Efflux ratio=Papp(B to A)/Papp(A to B)
(2) where dCr/dt is the cumulative concentration of the compound in the receiver chamber as a function of time (in μM/s); Vr is the solution volume in the receiver chamber (0.1 ml on the apical side and 0.3 ml on the basolateral side); A is the surface area for the transport, that is, 0.11 cm2 for the area of the monolayer; and CO is the initial concentration in the donor chamber (in μM).

PARP2 = biological target: T1, PARP2 (Homo sapiens, UniProt Q9UGN5); assay: PARP fluorescence anisotropy binding assay, PARP2; settings: recombinant full length PARP2
T1 construct: Recombinant full length PARP2 protein
Description: (§1) PARP Fluorescence Anisotropy Binding Assays
(§2) Recombinant full length PARP2 protein was diluted to 6 nM with 50 mM Tris pH 8, 0.001% Triton X100, 10 mM MgCl2, 150 mM NaCl and incubated for four hours with an equivalent volume of 2 nM fluorescent probe diluted with 50 mM Tris pH 8, 0.001% Triton X100, 10 mM MgCl2, 150 mM NaCl. The final DMSO concentration of the probe was kept below 1% (v/v).
(§3) Fluorescence anisotropy of the probe when bound to the proteins was measured using a BMG Pherastar FSX© in the presence of test compounds or solvent control and the effect on anisotropy determined. % inhibition values for different test compound concentrations were calculated and fitted to a four parameter logistic plot in order to determine the IC50 value.

PARP3 = biological target: T2, PARP3 (Homo sapiens, UniProt Q9Y6F1); assay: PARP fluorescence anisotropy binding assay, PARP3; settings: recombinant full length PARP3
T2 construct: Recombinant full length PARP3 protein
T2 sequence (Q9Y6F1 1-533): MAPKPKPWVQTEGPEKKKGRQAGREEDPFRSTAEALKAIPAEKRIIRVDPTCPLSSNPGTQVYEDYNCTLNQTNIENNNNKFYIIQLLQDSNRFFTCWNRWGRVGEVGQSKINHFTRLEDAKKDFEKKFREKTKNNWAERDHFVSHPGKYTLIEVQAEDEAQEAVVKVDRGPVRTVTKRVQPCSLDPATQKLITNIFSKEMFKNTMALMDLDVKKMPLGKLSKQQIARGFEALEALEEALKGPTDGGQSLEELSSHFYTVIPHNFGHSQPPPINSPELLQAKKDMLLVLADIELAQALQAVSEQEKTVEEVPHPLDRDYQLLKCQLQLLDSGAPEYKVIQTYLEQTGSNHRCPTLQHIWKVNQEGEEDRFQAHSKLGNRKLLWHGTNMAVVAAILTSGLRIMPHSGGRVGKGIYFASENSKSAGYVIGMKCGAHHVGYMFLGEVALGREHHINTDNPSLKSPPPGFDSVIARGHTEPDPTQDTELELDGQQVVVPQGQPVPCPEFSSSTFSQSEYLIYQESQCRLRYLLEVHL
From the text: as §1

PARP5a = PARP5a (Homo sapiens, UniProt O95271); assay: PARP fluorescence anisotropy binding assay, PARP5a binding domain; settings: recombinant PARP5a binding domain
From the text: as §1

PARP6 = biological target: T3, PARP6 (Homo sapiens, UniProt Q2NL67); assay: PARP fluorescence anisotropy binding assay, PARP6; settings: recombinant full length GST tagged PARP6
T3 construct: Recombinant full length GST tagged PARP6 protein; GST
Description: as §1
as §2, with “length GST tagged PARP6” for “length PARP2”, “to 160” for “to 6”, “of 6” for “of 2”
as §3, with “value. Where necessary, the compound Ki can be determined from the IC50 value using a Munson Rodbard equation defined in Anal Biochem. 1980 Sep. 1; 107(1):220-39 and is based on the known KD of the probe binding to the relevant PARP protein” for “value.”

hERG = hERG (Homo sapiens, UniProt Q12809); assay: hERG inhibition
From the text: It is well known that blockade of the cardiac ion channel coded by human ether-n-gogo-related gene (hERG) is a risk factor in drug discovery and development. Blockage of hERG can cause safety problems such as cardiac arrhythmia. Advantageously, the compounds of Formula I have low hERG activity.

BRCA2 (−/−) DLD1 cells = assay: PARP proliferation assay (7 day compound dosing), BRCA2 (−/−) DLD1; assay type: cell-based; settings: Homo sapiens, DLD-1, 168 h, BRCA2 −/− DLD-1 cells, 7 day dosing; read-out: BRCA2 −/− DLD-1 prolif. 7 d IC50
Description: (§4) PARP Proliferation Assay (7 Day Compound Dosing)
(§5) DLD1 and BRCA2 (−/−) DLD1 cells were harvested to a density of 5000 cells/ml and 2.5E4 cells/ml respectively in complete media, 40 μL/well seeded into 384-well plates (Greiner, Kremsmunster, Austria; 781090) using a Multidrop Combi then incubated at 37° C., 5% CO2 overnight. Next day (Day 1) using a Multidrop Combi add sytoxgreen (5 ul, 2 uM) and saponin (10 ul, 0.25% stock) to a day 0 plate, seal the plate using a black adhesive lid and incubate for >3 h at rt. Cells were imaged using Cell Insight (Thermo Fisher) fitted with a 4× objective. Test compounds are added using an Echo 555 and placed in incubator maintained at 37° C., 5% CO2 and incubated for 7 days. On Day 8 add sytox green (5 ul, 2 uM) and then saponin (10 ul, 0.25% stock) to plates, seal the plate using a black adhesive lid and incubate for >3 h at rt. Read all cells on the Cell Insight with 4× Objective. The rate of proliferation is determined in Genedata by assessing the total cell number output from the Cell Insight for Day 0 and Day 8 plates.

DLD1 cells = assay: PARP proliferation assay (7 day compound dosing), WT DLD1; assay type: cell-based; settings: Homo sapiens, 168 h; WT DLD-1 cells, 7 day dosing; read-out: WT DLD-1 prolif. 7 d IC50
Description: as §4, §5

Sequence of hERG (Q12809 whole entry): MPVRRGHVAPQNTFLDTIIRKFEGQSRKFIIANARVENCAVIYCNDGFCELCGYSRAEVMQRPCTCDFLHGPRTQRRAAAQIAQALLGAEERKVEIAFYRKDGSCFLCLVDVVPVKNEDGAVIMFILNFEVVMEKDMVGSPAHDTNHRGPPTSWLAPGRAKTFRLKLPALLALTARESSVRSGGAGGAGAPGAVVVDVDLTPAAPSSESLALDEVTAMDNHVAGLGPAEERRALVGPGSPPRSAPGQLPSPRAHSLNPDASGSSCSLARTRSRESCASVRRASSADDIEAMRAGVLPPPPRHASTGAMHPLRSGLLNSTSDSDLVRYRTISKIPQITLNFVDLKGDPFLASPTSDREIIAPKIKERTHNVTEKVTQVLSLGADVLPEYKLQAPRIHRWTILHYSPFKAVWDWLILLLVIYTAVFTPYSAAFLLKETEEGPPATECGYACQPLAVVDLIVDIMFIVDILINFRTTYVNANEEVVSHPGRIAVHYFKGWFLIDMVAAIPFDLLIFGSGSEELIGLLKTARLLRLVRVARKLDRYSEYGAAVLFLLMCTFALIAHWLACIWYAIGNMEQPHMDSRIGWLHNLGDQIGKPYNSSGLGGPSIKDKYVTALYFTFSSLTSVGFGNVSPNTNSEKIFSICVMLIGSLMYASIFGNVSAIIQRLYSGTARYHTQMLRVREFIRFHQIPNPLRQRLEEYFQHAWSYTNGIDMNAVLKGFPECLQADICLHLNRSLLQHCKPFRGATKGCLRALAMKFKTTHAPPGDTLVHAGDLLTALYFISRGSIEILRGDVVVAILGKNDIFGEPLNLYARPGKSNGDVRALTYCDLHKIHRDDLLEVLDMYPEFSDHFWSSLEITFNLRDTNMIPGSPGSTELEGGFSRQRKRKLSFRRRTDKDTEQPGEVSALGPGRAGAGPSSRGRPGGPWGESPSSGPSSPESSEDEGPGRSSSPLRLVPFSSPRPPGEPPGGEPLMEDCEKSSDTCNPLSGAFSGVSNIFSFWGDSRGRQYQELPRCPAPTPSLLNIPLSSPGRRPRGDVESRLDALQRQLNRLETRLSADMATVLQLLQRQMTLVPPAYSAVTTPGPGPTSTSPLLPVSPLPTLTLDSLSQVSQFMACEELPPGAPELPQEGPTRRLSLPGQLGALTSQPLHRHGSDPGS
T3 sequence (Q2NL67 whole entry): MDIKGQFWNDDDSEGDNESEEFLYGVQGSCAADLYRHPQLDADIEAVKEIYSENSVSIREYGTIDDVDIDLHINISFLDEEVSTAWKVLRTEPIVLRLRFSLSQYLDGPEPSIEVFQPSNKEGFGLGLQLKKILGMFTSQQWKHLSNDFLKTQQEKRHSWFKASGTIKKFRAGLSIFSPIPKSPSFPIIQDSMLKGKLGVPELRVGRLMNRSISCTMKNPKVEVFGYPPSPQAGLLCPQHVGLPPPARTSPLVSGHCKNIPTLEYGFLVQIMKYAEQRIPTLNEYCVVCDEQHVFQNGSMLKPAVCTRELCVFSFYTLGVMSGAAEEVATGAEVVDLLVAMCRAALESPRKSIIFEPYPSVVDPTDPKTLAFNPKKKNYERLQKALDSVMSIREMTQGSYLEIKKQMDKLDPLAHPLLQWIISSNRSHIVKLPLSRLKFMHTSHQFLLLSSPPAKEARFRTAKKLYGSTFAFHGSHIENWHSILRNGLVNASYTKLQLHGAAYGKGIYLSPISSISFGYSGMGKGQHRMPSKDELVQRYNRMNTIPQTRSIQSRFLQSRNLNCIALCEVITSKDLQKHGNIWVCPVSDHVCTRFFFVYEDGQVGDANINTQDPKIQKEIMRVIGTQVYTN
Sequence of PARP5a (O95271 1112-1317): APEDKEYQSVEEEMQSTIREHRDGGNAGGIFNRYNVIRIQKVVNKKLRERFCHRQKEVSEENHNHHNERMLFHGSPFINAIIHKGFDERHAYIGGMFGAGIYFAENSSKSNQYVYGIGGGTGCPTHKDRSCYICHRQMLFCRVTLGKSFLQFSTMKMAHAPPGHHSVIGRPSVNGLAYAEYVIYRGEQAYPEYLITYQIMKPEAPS
T1 sequence (Q9UGN5 whole entry): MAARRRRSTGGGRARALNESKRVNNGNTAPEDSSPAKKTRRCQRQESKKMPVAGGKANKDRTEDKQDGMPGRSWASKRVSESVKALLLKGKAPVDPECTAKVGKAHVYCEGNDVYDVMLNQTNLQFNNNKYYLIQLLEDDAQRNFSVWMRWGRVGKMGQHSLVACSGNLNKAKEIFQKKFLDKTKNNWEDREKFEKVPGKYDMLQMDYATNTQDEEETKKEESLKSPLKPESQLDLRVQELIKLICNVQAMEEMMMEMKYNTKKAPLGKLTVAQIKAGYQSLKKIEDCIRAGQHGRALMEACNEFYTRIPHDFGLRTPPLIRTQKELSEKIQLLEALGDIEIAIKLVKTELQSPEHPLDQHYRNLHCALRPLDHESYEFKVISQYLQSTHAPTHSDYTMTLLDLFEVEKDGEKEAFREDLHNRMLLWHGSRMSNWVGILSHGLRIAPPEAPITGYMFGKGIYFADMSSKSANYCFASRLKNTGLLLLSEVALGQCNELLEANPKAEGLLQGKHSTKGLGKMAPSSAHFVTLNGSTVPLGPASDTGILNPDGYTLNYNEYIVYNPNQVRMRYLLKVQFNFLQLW

Row | Structure (SMILES) | efflux ratio at 90 min (MDR1 and BCRP) | pIC50 (PARP2) | pIC50 (PARP3) | pIC50 (PARP5a) | pIC50 (PARP6) | pIC50 (hERG) | pIC50 (BRCA2 (−/−) DLD1 cells) | pIC50 (DLD1 cells)
1 | CNC(=O)c1ccc(N2CCN(Cc3ccc4nc(C(C)F)c(=O)[nH]c4c3F)CC2)c(C)n1 (single isomer, unassigned) [Example 14, 5-[4-[[5-fluoro-2-[(1S OR 1R)-1-fluoroethyl]-3-oxo-4H-quinoxalin-6-yl]methyl]piperazin-1-yl]-N,6-dimethyl-pyridine-2-carboxamide] | 3.7 | – | – | – | – | – | – | –
2 | CCc1nc2ccc(CN3CCN(c4ccc(C(=O)NC)nc4Cl)CC3)c(Cl)c2[nH]c1=O [Example 8, 6-chloro-5-[4-[(5-chloro-2-ethyl-3-oxo-4H-quinoxalin-6-yl)methyl]piperazin-1-yl]-N-methyl-pyridine-2-carboxamide] | – | < 4.18 | < 4.00 | < 4.00 | < 4.00 | < 4.40 | 7.92 | < 5.10
3 | CCc1nc2ccc(CN3CCN(c4ccc(C(=O)NC)nc4F)CC3)c(Cl)c2[nH]c1=O [Example 9, 5-[4-[(5-chloro-2-ethyl-3-oxo-4H-quinoxalin-6-yl)methyl]piperazin-1-yl]-6-fluoro-N-methyl-pyridine-2-carboxamide] | – | < 4.00 | < 4.00 | < 4.00 | < 4.00 | < 4.40 | 8.00 | < 5.00
4 | CCc1nc2ccc(CN3CCN(c4ccc(C(=O)NC)nc4)CC3)c(Cl)c2[nH]c1=O [Example 10, 5-[4-[(5-chloro-2-ethyl-3-oxo-4H-quinoxalin-6-yl)methyl]piperazin-1-yl]-N-methyl-pyridine-2-carboxamide] | – | < 4.00 | < 4.00 | < 4.00 | < 4.00 | < 4.40 | < 4.52 | < 4.52
5 | CCc1nc2ccc(CN3CCN(c4ccc(C(=O)NC)nc4C)CC3)c(Cl)c2[nH]c1=O [Example 11, 5-[4-[(5-chloro-2-ethyl-3-oxo-4H-quinoxalin-6-yl)methyl]piperazin-1-yl]-N,6-dimethyl-pyridine-2-carboxamide] | – | < 4.00 | < 4.00 | < 4.00 | < 4.00 | < 4.40 | 8.05 | < 4.52
6 | CNC(=O)c1ccc(N2CCN(Cc3ccc4nc(C)c(=O)[nH]c4c3Cl)CC2)cn1 [Example 16, 5-[4-[(5-chloro-2-methyl-3-oxo-4H-quinoxalin-6-yl)methyl]piperazin-1-yl]-N-methyl-pyridine-2-carboxamide] | – | < 4.00 | < 4.00 | < 4.54 | < 4.00 | < 4.40 | 5.44 | < 4.52
7 | CNC(=O)c1ccc(N2CCN(Cc3ccc4nc(C)c(=O)[nH]c4c3Cl)CC2)c(F)n1 [Example 17, 5-[4-[(5-chloro-2-methyl-3-oxo-4H-quinoxalin-6-yl)methyl]piperazin-1-yl]-6-fluoro-N-methyl-pyridine-2-carboxamide] | – | < 4.00 | < 4.00 | < 4.00 | < 4.00 | < 4.40 | 5.98 | < 5.00
8 | CNC(=O)c1ccc(N2CCN(Cc3ccc4nc(C)c(=O)[nH]c4c3Cl)CC2)c(C)n1 [Example 18, 5-[4-[(5-chloro-2-methyl-3-oxo-4H-quinoxalin-6-yl)methyl]piperazin-1-yl]-N,6-dimethyl-pyridine-2-carboxamide] | – | < 4.00 | < 4.00 | < 4.00 | < 4.00 | – | 5.36 | 4.68
9 | CNC(=O)c1ccc(N2CCN(Cc3ccc4nc(C)c(=O)[nH]c4c3F)CC2)c(F)n1 [Example 20, 6-fluoro-5-[4-[(5-fluoro-2-methyl-3-oxo-4H-quinoxalin-6-yl)methyl]piperazin-1-yl]-N-methyl-pyridine-2-carboxamide] | – | – | < 4.00 | < 4.00 | < 4.00 | < 4.40 | – | –
10 | CCc1nc2ccc(CN3CCN(c4ccc(C(=O)NC)nc4C)CC3)c(F)c2[nH]c1=O [Example 23, 5-[4-[(2-ethyl-5-fluoro-3-oxo-4H-quinoxalin-6-yl)methyl]piperazin-1-yl]-N,6-dimethyl-pyridine-2-carboxamide] | – | – | – | – | – | < 4.40 | 8.52 | < 4.52
11 | CCc1nc2ccc(CN3CCN(c4ccc(C(=O)NC)nc4C(F)F)CC3)c(F)c2[nH]c1=O [Example 24, 6-(difluoromethyl)-5-[4-[(2-ethyl-5-fluoro-3-oxo-4H-quinoxalin-6-yl)methyl]piperazin-1-yl]-N-methyl-pyridine-2-carboxamide] | – | – | – | – | – | < 4.44 | 8.52 | < 4.52
12 | CCc1nc2ccc(CN3CCN(c4ccc(C(=O)NC)nc4F)CC3)c(F)c2[nH]c1=O [Example 27, 5-[4-[(2-ethyl-5-fluoro-3-oxo-4H-quinoxalin-6-yl)methyl]piperazin-1-yl]-6-fluoro-N-methyl-pyridine-2-carboxamide] | – | – | – | – | – | < 4.40 | 8.22 | 5.20
13 | CCc1nc2ccc(CN3CCN(c4ccc(C(=O)NC)nc4)CC3)c(F)c2[nH]c1=O [Example 29, 5-[4-[(2-ethyl-5-fluoro-3-oxo-4H-quinoxalin-6-yl)methyl]piperazin-1-yl]-N-methyl-pyridine-2-carboxamide] | – | – | – | – | – | < 4.40 | 8.30 | < 5.00
14 | CNC(=O)c1ccc(N2CCN(Cc3ccc4nc(C)c(=O)[nH]c4c3F)CC2)c(Cl)n1 [Example 30, 6-chloro-5-[4-[(5-fluoro-2-methyl-3-oxo-4H-quinoxalin-6-yl)methyl]piperazin-1-yl]-N-methyl-pyridine-2-carboxamide] | – | – | – | – | – | < 4.40 | 8.52 | < 4.52
15 | CNC(=O)c1ccc(N2CCN(Cc3ccc4nc(C)c(=O)[nH]c4c3F)CC2)cn1 [Example 32, 5-[4-[(5-fluoro-2-methyl-3-oxo-4H-quinoxalin-6-yl)methyl]piperazin-1-yl]-N-methyl-pyridine-2-carboxamide] | – | – | – | – | – | < 4.40 | 5.97 | 4.64
16 | CNC(=O)c1ccc(N2CCN(Cc3ccc4nc(C(F)(F)F)c(=O)[nH]c4c3F)CC2)c(F)n1 [Example 48, 6-fluoro-5-[4-[[5-fluoro-3-oxo-2-(trifluoromethyl)-4H-quinoxalin-6-yl]methyl]piperazin-1-yl]-N-methyl-pyridine-2-carboxamide] | – | – | – | – | – | < 4.40 | 7.74 | 4.57
